The values below come from patent US20260083669A1, “AQUEOUS GEL COMPOSITION” (Acousia Therapeutics GmbH, priority 2022, published 2026).

Structures are written as SMILES. “And” between values parts separate entries of the source, which are not always exact repeats. Identical values can stand only once. Like-named read-outs stand apart in the source and are kept apart here. Some results are limits rather than exact numbers.

For orientation: solubility means how much of the substance goes into solution per volume. A low value points to a poorly soluble substance.

Series [1] is described as follows: Viscosity test: temperature-induced rise in viscosity. Format: physicochemical. Conditions: 15% poloxamer 407 gel with 2% API vs without. The procedure:
The viscosity normally is measured with a viscometer, in particular a rheometer. A rheometer usually is a laboratory device measuring flow characteristics of a liquid, suspension or slurry in response to applied forces. A common device type is a so called shear rheometer, in which a shear stress is applied to the corresponding material. Devices which can be used to measure the viscosity of the aqueous gel compositions according to the invention are rheometers from Brookfield (AMETEK Brookfield). […]
Note: Maximal Viscosity is Identical for all Formulations (Due to the Test Method)

A short description of another series: Solubility in water. Conditions: 24 °C, room temperature (22-26° C.). Format: physicochemical.
Series [2] in a line: Pharmacokinetic study after unilateral transtympanic administration (plasma, inner ear, perilymph, brain). The class given is in vivo, female Sprague Dawley rats. As to conditions: rat; for concentration at 14 days: 14 days after administration; for ACOU085 plasma concentration / ACOU085 brain concentration: 6% thermo-reversible formulation 1.2 mg/animal unilateral transtympanic. The procedure: Eighteen female Sprague Dawley rats entered a pharmacokinetic study, to determine the distribution of a 6% thermo-reversible ACOU085 formulation at a dose of 1.2 mg/animal after unilateral transtympanic administration in peripheral plasma, inner ear, perilymph, brain and CSF.
4, 24, 48, 96, 168 and 336 h after dosing n=3 rats out of every group were euthanized with carbon dioxide, peripheral and final blood samples and brain were taken and inner ears were dissected to analyze ACOU085 concentrations. Body weight was assessed on the day 1-4, on day 7 and day 14. Animals were checked for any clinical signs associated with toxicity of the test substance.

The mark [3] stands for this setting: 6% thermo-reversible formulation 1.2 mg/animal transtympanic.

Regarding `O=C(NCc1cccc(S(F)(F)(F)(F)F)c1)[C@H]1C[C@@H]2CC[C@H]1C2` [ACOU085, (1S,2S,4R)—N-(3-(pentafluorosulfanyl)benzyl) bicyclo[2.2.1]heptane-2-carboxamide], the “effect of API on the viscosity-temperature relation of the formulation” value in series [1] is “no effect”. The solubility in “Solubility in water” is under 1000 µg/mL. Also, the concentration at 336 h in series [2] (female, Sprague Dawley, other: transtympanic, perilymph, 6% formulation 1.2 mg/animal unilateral transtympanic, Left side, 336 h, animals 1-3, read-out: Uptake of ACOU085 into the perilymph: ACOU085 inner ear concentration) is 4 nM. Moreover, the concentration at 14 days in series [2] (female, Sprague Dawley, brain, other: transtympanic, 1.2 mg/animal, read-out: brain concentration (average)) worked out at 8 nM; in series [2] (female, Sprague Dawley, plasma, other: transtympanic, 1.2 mg/animal, read-out: plasma concentration (average)) it was 4 nM. Moreover, the concentration at 4 h in series [2] (female, Sprague Dawley, inner ear, left side, other: transtympanic, 1.2 mg/animal, 6% formulation 1.2 mg/animal unilateral transtympanic, Left side, 4 h, animals 1-3, read-out: ACOU085 inner ear concentration) is 55 nM. The same compound showed a concentration at 7 days in series [2] (female, Sprague Dawley, plasma, other: transtympanic, 1.2 mg/animal, after 7 days) of 26 nM. In addition, the “ACOU085 inner ear concentration” value in series [2] (6% formulation 1.2 mg/animal unilateral transtympanic, Left side, 4 h, animals 1-3) is 82 nmol/L and 93 nmol/L. Besides, in series [2] (setting [3]), the “maximal average concentration in brain” value turned out to be 82 nmol/L. In addition, in series [2] (setting [3]), the “maximal average concentration in plasma” value came out at 45 nmol/L. The ACOU085 plasma concentration was 9 nnmol/L and 6 nnmol/L and 12 nnmol/L in series [2] (4 h (printed 4 11), animals 1-3); 12 nnmol/L and 18 nnmol/L and 16 nnmol/L in series [2] (48 h, animals 1-3); 48 nnmol/L and 26 nnmol/L and 33 nnmol/L in series [2] (96 h, animals 1-3). For the same compound, the ACOU085 brain concentration in series [2] (48 h, animals 1-3) was 38 nnmol/L and 53 nnmol/L and 76 nnmol/L; in series [2] (96 h, animals 1-3) it was 94 nnmol/L and 52 nnmol/L and 68 nnmol/L. The “time of peak brain concentration” value in series [2] (after injection) worked out at 96 h. Besides, the “uptake into the brain and into the plasma” value in series [2] (compared with inner ear tissue and perilymph) was “low in comparison to the inner ear tissue and perilymph”. Further, the “Uptake of ACOU085 into the perilymph: ACOU085 inner ear concentration” value in series [2] (perilymph, 6% formulation 1.2 mg/animal unilateral transtympanic, Left side, 336 h, animals 1-3) is 3 nmol/L and 2 nmol/L.
Consider `O=C(NCc1cccc(S(F)(F)(F)(F)F)c1)[C@H]1C[C@@H]2CC[C@H]1C2` (racemic) [Compound A, (1SR,2SR,4RS)—N-(3-(pentafluoro-λ6-sulfanyl)benzyl) bicyclo[2.2.1]heptane-2-carboxamide], for which, in “Solubility in water”, the solubility is under 1000 µg/mL.
